pIC50: −log10 of the molar value.

This passage reports IC50 results from BindingDB's records for doi:10.1016/j.bmcl.2012.11.036 (University of Namur, 2012).

The target in this assay is Indoleamine 2,3-dioxygenase 1 (Homo sapiens, UniProt P14902). The experiment in a line: Inhibition of human recombinant IDO1 using L-Trp as substrate assessed as kynurenine level after 30 mins.
Sequence of Indoleamine 2,3-dioxygenase 1 (P14902 whole entry): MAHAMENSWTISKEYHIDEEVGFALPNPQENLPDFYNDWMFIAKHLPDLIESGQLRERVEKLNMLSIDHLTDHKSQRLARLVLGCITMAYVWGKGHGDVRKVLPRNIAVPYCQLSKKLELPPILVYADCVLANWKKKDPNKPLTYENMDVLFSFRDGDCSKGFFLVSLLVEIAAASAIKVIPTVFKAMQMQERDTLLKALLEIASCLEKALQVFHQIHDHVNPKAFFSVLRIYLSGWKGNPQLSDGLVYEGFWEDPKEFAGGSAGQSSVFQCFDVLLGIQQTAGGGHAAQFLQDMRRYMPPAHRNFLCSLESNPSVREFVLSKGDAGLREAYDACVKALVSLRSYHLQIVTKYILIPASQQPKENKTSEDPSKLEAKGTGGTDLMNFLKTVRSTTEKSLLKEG

In the case of `COc1ccc(C2CN=C3C(=O)c4c(CCN)cn(S(=O)(=O)c5ccc(C)cc5)c4C(=O)C32)cc1` (configuration not stated), the pIC50 was 5.25.
On to `COc1ccc(C2CN=C3C(=O)c4ccn(S(=O)(=O)c5ccc(C)cc5)c4C(=O)C32)cc1` (configuration not stated), for which the pIC50 is 5.25.

As usually defined, the pIC50 is −log10 of the IC50, conventionally taken in molar units.
